In patent US4937232A, “Inhibition of protein kinase C by long-chain bases” (priority 1988, dated 1990):

Experiments:
HL-60 cells = experiment: Acid phosphatase activities of suspended and attached HL-60 cells; type: cell-based, human
Experimental: Cells were centrifuged at 600 g for 3 min, and added at 1×10^5 cells per well in 12-well culture dishes. Medium, PMA, and long-chain bases (prepared as the 1:1 molar complex with fatty acid-free bovine serum albumin) at the indicated concentrations were added for a total volume of 2.0 ml. After the desired times, the cells in suspension were counted and checked for viability (trypan blue exclusion) with a hemacytometer. The attached cells were quantitated by measuring DNA content according to the method of West et al (Anal. Biochem., 147, 289-295, 1985) and by assaying for acid phosphatase according to the method of Schnyder (J. Exp. Med., 148, 434-445, 1978).

NADPH-oxidase = biological target: T1, NADPH-oxidase (Homo sapiens, UniProt P04839); experiment: NADPH-oxidase activity in isolated neutrophil membranes; type: biochemical
T1 construct: endogenous in cells
Experimental: Superoxide production was also measured spectrophotometrically in isolated membranes (see below) by the method of Curnutte et al (N. Eng. J. Med. 293, 628-632) also using superoxide dismutase inhibitable reduction of cytochrome c. Assays utilized paired cuvettes with the reference cuvette containing 30 μg/ml superoxide dismutase. Both cuvettes also contained 65 mM potassium phosphate pH 7.0, 125 mM sucrose, 81 μM cytochrome c, and 0.1 mg of membrane protein. The reaction was initiated with 200 μM (final) NADPH in both cuvettes. The treatments are as described in Table I. All spectrophotometric measurements were carried out using a Cary […] spectrophotometer.
Neutrophil membranes activated for superoxide production were prepared as described previously (Hohn, J. Clin. Invest. 55, 707-713, 1975). Neutrophils (10^8) were suspended in PBS-glucose and incubated in a shaking waterbath at 37° C. Cells were activated by the addition of 10 μg PMA/ml and allowed to incubate 5 min. The reaction was stopped by adding an equal volume of ice-cold PBS. The cells were centrifuged at 400×g for 4 min at 4° C. and resuspended in PBS-glucose containing 120 μM FAD. The cells were lysed by homogenization with a teflon-glass homogenizer. The homgenate was centrifuged at 250×g for 10 min. to remove unlysed cells. […]

[1] = system: Ca++/calmodulin-dependent protein kinase; experiment: Phosphorylation of the 20K protein in platelets; type: cell-based; settings: concentrations which completely abolished phosphorylation of the 40K protein
protein kinase M = experiment: Activity of the catalytic domain (protein kinase M); type: biochemical, rat
Experimental: Under these conditions, the bulk concentration of PS was 260 μM and diC18:1 was 86 μM. Therefore, 50% inhibition (100 μM) occurred on a molar basis equivalent to [diC18:1 ] or to 0.4 of [PS]. The potency of sphingosine inhibition was markedly affected by the number of Triton X-100 mixed micelles containing 7 mol % PS and 1 mol % diC18:1present in the assay (FIG. 11A). Thus, the effect of sphingosine was subject to surface dilution. When the data are expressed as mol %, (sphingosine:Triton X-100), sphingosine inhibition at four different levels of Triton X-100 mixed micelles (containing PS and diC18:1) was identical (FIG. 11B) implying that it is the number of sphingosine molecules present in each mixed micelle that determines the potency and not the absolute concentration. For surface active amphipathic molecules, the expression of inhibitor potencies must be relative to the amount of surface (micelles in this case) as bulk concentrations are misleading. […] To test this hypothesis, the catalytic domain (protein kinase M) was generated by proteolysis of protein kinase C^2. The activity of this catalytic domain which is independent of Ca^2+, phospholipid and DAG/phorbol esters was not inhibited by sphingosine (FIG. 10).
^2 The catalytic domain was generated by trypsin treatment of purified protein kinase C; and purified by Ultrogel AcA-44 molecular sieve chromatography. […]

[2] = system: protein kinase C-induced phosphorylation of the 40 KDa polypeptide; experiment: 40K (40 kDa) protein phosphorylation in human platelets; type: cell-based
Experimental: They were then suspended in modified Tyrode's buffer to a concentration of 2.5×10^8 platelets/ml.
^32 Pi at 0.2 mCi/ml was added to the platelet suspension and labelling was allowed to proceed for 75 minutes at 37° C., after which the platelets were pelleted at 600×g for 10 minutes and resuspended in Tyrode's buffer to the same concentration. They were then aliquoted in Eppendorf microfuge tubes and preincubated at 37° C. for 5 minutes with the varying concentrations of sphingosine. Platelets were then stimulated with either 5 μM dioctanoylglycerol (added as an ethanol solution with the final concentration of ethanol 0.5%), 10 μM TPA, or 1 unit/ml thrombin. The reactions were stopped after 30 seconds by the addition of an equal volume of 2× sample buffer, and the samples were then boiled for 3 minutes. […] Gels were subsequently fixed in water/methanol/acetic acid (60:30:10), dried, and autoradiographed.

[3] = 8 nM PMA, 1 μM sphinganine, 24 h
[4] = 8 nM PMA, 1 μM sphinganine, 72 h
[5] = 8 nM PMA, 2.5 μM sphinganine, 24 h
[6] = 8 nM PMA, 2.5 μM sphinganine, 72 h
[7] = 8 nM PMA, 5 μM sphinganine, 24 h
[8] = 8 nM PMA, 5 μM sphinganine, 72 h
[9] = No PMA, 2.5 μM sphinganine, 24 h
[10] = No PMA, 2.5 μM sphinganine, 72 h

CCCCCCCCCCCCCCC[C@@H](O)[C@@H](N)CO (relative stereo) [Sphinganine, erythro-dihydrosphingosine]
Acid phosphatase activity, Adherent (HL-60 cells; [3]): 0.44 ± 0.11 nmol/h/dish
Acid phosphatase activity, Suspended (HL-60 cells; [3]): 0.22 ± 0.07 nmol/h/dish
Adherence (% of total) (HL-60 cells; [3]): 67 % of total
Acid phosphatase activity, Adherent (HL-60 cells; [4]): 2.95 ± 0.62 nmol/h/dish
Acid phosphatase activity, Adherent (%) (HL-60 cells; [4]): 98%
Acid phosphatase activity, Suspended (HL-60 cells; [4]): 0.05 ± 0.01 nmol/h/dish
Acid phosphatase activity, Adherent (HL-60 cells; [5]): 0.30 ± 0.04 nmol/h/dish
Acid phosphatase activity, Suspended (HL-60 cells; [5]): 0.49 ± 0.28 nmol/h/dish
Adherence (% of total) (HL-60 cells; [5]): 38 % of total
Acid phosphatase activity, Adherent (HL-60 cells; [6]): 3.10 ± 0.30 nmol/h/dish
Acid phosphatase activity, Adherent (%) (HL-60 cells; [6]): 98%
Acid phosphatase activity, Suspended (HL-60 cells; [6]): 0.06 nmol/h/dish
Acid phosphatase activity, Adherent (HL-60 cells; [7]): 0.14 ± 0.04 nmol/h/dish
Adherence (% of total) (HL-60 cells; [7]): 21 % of total
Acid phosphatase activity, Adherent (HL-60 cells; [8]): 0.82 ± 0.38 nmol/h/dish
Acid phosphatase activity, Adherent (%) (HL-60 cells; [8]): 87%
Acid phosphatase activity, Suspended (HL-60 cells; [8]): 0.12 ± 0.08 nmol/h/dish
Acid phosphatase activity, Adherent (HL-60 cells; No PMA, 1 μM sphinganine, 24 h): 0.06 ± 0.03 nmol/h/dish
Acid phosphatase activity, Suspended (HL-60 cells; No PMA, 1 μM sphinganine, 24 h): 1.53 ± 0.01 nmol/h/dish
Adherence (% of total) (HL-60 cells; No PMA, 1 μM sphinganine, 24 h): 4 % of total
Acid phosphatase activity, Adherent (HL-60 cells; No PMA, 1 μM sphinganine, 72 h): 0.05 ± 0.03 nmol/h/dish
Acid phosphatase activity, Adherent (%) (HL-60 cells; No PMA, 1 μM sphinganine, 72 h): 2%
Acid phosphatase activity, Suspended (HL-60 cells; No PMA, 1 μM sphinganine, 72 h): 2.77 ± 0.25 nmol/h/dish
Acid phosphatase activity, Adherent (HL-60 cells; [9]): 0.06 ± 0.02 nmol/h/dish
Acid phosphatase activity, Suspended (HL-60 cells; [9]): 1.25 ± 0.16 nmol/h/dish
Adherence (% of total) (HL-60 cells; [9]): 5 % of total
Acid phosphatase activity, Adherent (HL-60 cells; [10]): 0.05 ± 0.02 nmol/h/dish
Acid phosphatase activity, Adherent (%) (HL-60 cells; [10]): 2%
Acid phosphatase activity, Suspended (HL-60 cells; [10]): 2.35 ± 0.11 nmol/h/dish
Acid phosphatase activity, Adherent (HL-60 cells; No PMA, 5 μM sphinganine, 24 h): 0.04 ± 0.01 nmol/h/dish
Acid phosphatase activity, Suspended (HL-60 cells; No PMA, 5 μM sphinganine, 24 h): 0.91 ± 0.16 nmol/h/dish
Adherence (% of total) (HL-60 cells; No PMA, 5 μM sphinganine, 24 h): 4 % of total
Acid phosphatase activity, Adherent (HL-60 cells; No PMA, 5 μM sphinganine, 72 h): 0.04 ± 0.01 nmol/h/dish
Acid phosphatase activity, Adherent (%) (HL-60 cells; No PMA, 5 μM sphinganine, 72 h): 14%
Acid phosphatase activity, Suspended (HL-60 cells; No PMA, 5 μM sphinganine, 72 h): 0.24 ± 0.01 nmol/h/dish
Cytochrome c Reduction (NADPH-oxidase; 18 μM sphinganine, membranes from PMA-pretreated cells): 27 nmols/min/mg/protein
inhibition of NADPH-dependent superoxide generation in isolated membranes (NADPH-oxidase; concentrations which inhibited the cellular response): No inhibition
inhibition of phosphorylation of the 20K protein in platelets [1]: lack of inhibition

CCCCCCCCCCCCC/C=C/[C@@H](O)[C@@H](N)CO [sphingosine]
inhibition of the catalytic domain (protein kinase M) (protein kinase M): not inhibited
inhibition of thrombin-induced 40K phosphorylation ([2]; 25 μM sphingosine): nearly complete inhibition
inhibition of thrombin-induced 40K phosphorylation ([2]; concentrations as low as 10 μM): Partial inhibition
inhibition of TPA and diC8-induced 40K phosphorylation ([2]; data not shown): inhibited
sphingosine required for complete inhibition (mol % sphingosine:phospholipids) ([2]; platelet 40K phosphorylation, similar to in vitro inhibition of protein kinase C): 3-5 mol %
